In patent US11236129B2, “IL-17A binding peptides and medical uses thereof” (Dompe' Farmaceutici S.P.A., priority 2018, dated 2022):
“Also recorded” adds a separate entry of the source. Where two headings read alike, the source gives them in different places. Residues, ends and D or L forms follow the SMILES beside them.

How the values were obtained:
[1] = Isoelectric point, log D and log P (SiriusT3); assay type: physicochemical; settings: for IP (isoelectric point): 25±1° C., 0.15 M KCl
[2] = assay type: physicochemical; settings: pH 7.8
Outline: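 Peptides dissolved in phosphate buffer pH 7.8 as 10 mM stocks (more dilute for less soluble ones) and stored at 25 °C. Content measured by reversed-phase UHPLC (C18, 0.5% formic acid water/acetonitrile gradient, DAD 220-400 nm, ESI-MS ion trap) after 1:100 dilution to 100 μM, against 100 μM standards, at T0, 3 days and 1 week.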

[3] = Permeability test across stratified human corneal epithelial cells; assay type: in vitro ADME
Method: (§1) The objective of this study was to evaluate the apparent permeability coefficient (Papp) value of the peptides across stratified human corneal epithelial cells. All peptides were tested at 50 μM in duplicate.
(§2) In particular, human corneal epithelial cells (hCEPIC) were stratified on Transwell cell culture inserts (Corning, N.Y., USA). The permeation experiments were performed taking samples from receiver chambers at 5, 30, 60 minutes time points and from donor chambers at the same time points. Each aliquot collected was analyzed by HPLC instrument (Knauer) equipped with C18 Vertex Plus Column (Knauer) thermostatically controlled at 40° C. The rate (apparent permeability coefficient, Papp) of the study compounds was calculated and compared to the Papp values of the low and high permeability markers, 6-carboxyfluorescein and Rhodamine B, respectively.
(§3) The apparent permeability coefficient (Papp) was calculated according to Equation: Papp=(I/A*C0)(dM/dt)
(§4) where dM/dt is the flux (nanomoles per second) across the cell layers;
(§5) A (square centimeters) is the exposed surface area of the insert membrane;
(§6) C0 is the initial drug concentration (micromolar) in the donor compartment at t=0 (Xiang et al., Drug Metab Dispos. 2009 May; 37(5):992-8.

mouse IL-17A = target: T1, mouse IL-17A (Mus musculus, UniProt Q62386); assay: Peptide-IL-17A affinity test (SPR); assay type: binding
T1 sequence (Q62386 26-158): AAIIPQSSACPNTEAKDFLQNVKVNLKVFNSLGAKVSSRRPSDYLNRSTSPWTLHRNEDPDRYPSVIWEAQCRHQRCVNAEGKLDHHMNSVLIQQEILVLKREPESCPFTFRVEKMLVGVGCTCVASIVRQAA
Method: The peptide of the prior art HAP (SEQ ID NO:1) and peptide of SEQ ID NO:2 were tested for affinity for mIL-17A, as described below. For the immobilization of mouse IL-17A protein, amine coupling chemistry was used. […] Covalent immobilization of mIL17 results in stable attachment of 3000 RU of ligand to the surface. […] The molecules were diluted at different concentrations (from 62.5 to 1000 nM) in HBS-EP buffer and injected on the sensorchip for 4 minutes and allowed to dissociate for 5 minutes. After each run, the sensorchip was regenerated by 2 M NaCl injection. Based on the sensorgrams (FIG. 1, panel A) and using the BIAevaluation software, the Scatchard analysis of the RU values at equilibrium allowed to determine an affinity constant as a function of the analyte concentration in solution (FIG. 6, panel B).

[4] = target: IL-17RA/IL17RC dimerization induced by IL-17A (Homo sapiens, UniProt Q16552); assay: IL-17RA/IL17RC dimerization assay in response to IL-17A (PathHunter Cytokine Receptor Assay); assay type: cell-based; settings: IL-17A at EC80; read-out: IC50 in IL-17RA/IL7RC dimerization assay
Chain of IL-17RA/IL17RC dimerization induced by IL-17A (Q16552 24-155): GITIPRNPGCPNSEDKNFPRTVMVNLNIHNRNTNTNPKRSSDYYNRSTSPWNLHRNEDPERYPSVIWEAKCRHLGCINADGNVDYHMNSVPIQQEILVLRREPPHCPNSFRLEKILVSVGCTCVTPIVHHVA
Outline: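 Receptor dimerization was read as chemiluminescence from complemented β-galactosidase after IL-17A at EC80 concentration for 6–16 h at 37 °C. Peptides were added 60 min before agonist, at 37 °C or room temperature, with 1% vehicle. Percent inhibition used the EC80-stimulated and vehicle wells as references.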

[5] = test system: human corneal epithelial cells (hCEPIC); assay: Permeability test across stratified human corneal epithelial cells; assay type: in vitro ADME
Method: as §1, §2, §3, §4, §5, §6

[6] = test system: Immortalized Human Corneal Epithelial cell line (I-HCEC); assay: In vitro evaluation of expression of inflammatory cytokines in I-HCEC (real-time PCR); assay type: cell-based; settings: 0.01-500 μM, 24 hours
Method: The tests were conducted on Immortalized Human Corneal Epithelial cell line (I-HCEC) (Innoprot, Bizkaia, Spain, Ref. P10871). […] The cell medium was supplemented with 5% Fetal Bovine Serum (FBS). Cells were seeded at 320000 cells/well 6 plate and 15000 cells/well 96 plate. […] The experiments were performed three times, each time in duplicate. The used probes from Thermo Fisher Scientific are: human CXCL8 (Hs00174103_m1), human IL6 (Hs00174131_m1), human TNFα (Hs99999043_m1). As housekeeping gene was used GAPDH (probe Hs02758991_g1). […] Untreated I-HCEC were used as negative control (Vehicle).

[7] = test system: human differentiated TH17 cells; assay: Cytokine and metalloproteinase secretion by human differentiated and activated TH17 cells; assay type: cell-based; settings: 24 h after stimulation, supernatant
From the text: To evaluate the effect of the peptides of the invention on the target cells responsible for inflammation in ophtalmic or dermatological pathologies, we tested the ability of the peptide of SEQ ID NO: 18 to inhibit in vitro pro-inflammatory cytokines and metalloproteinases secretion by human Th17 cells.
Human primary CD4 T-cells were differentiated into Th17 cells in vitro by culturing the cells in Th17 differentiation medium for 10 days. In details, purified human peripheral blood CD4 T-cells were cultured in Th-17 differentiation medium (CellXVivo Human Th17, Tocris) per manufacturer's instructions. Briefly: 96-well tissue culture plates were coated with anti-CD3 and CD28 agonistic antibodies. Cells were counted via trypan blue exclusion and suspended at a concentration of 1E5 cells/ml in Th-17 differentiation medium. 0.2 mL of this suspension was plated into individual wells of a 96-well plate. Cells were incubated at 37° C. with 5% CO2 for 10 days, with media replaced as needed. Following 10-day Cell Differentiation, the peptides synthetized in Example 1, such as the peptide of Seq. ID No 18, were diluted to the appropriate concentration in CGM (cell growth medium, XVivo-15, Lonza). Cell plate was centrifuged at 300×g for 5 min, and Th17 differentiation medium was removed.
Following differentiation, the cells were stimulated with both an activation cocktail containing Phorbol 12-myristate 13-acetate and lonomycin in the presence of varying concentrations of test articles.
(§7) At 24 h following stimulation, culture supernatants were analyzed for expression of IL-17, IL-6, IL-23, MMP3 and examined for viability using the fluorescence viability dye, Alamar blue. The CD4 cells secreted high levels of IL-17A in response to stimulation with an activation cocktail, indicating successful differentiation into Th17 cells. Additionally, stimulated cells secreted IL-6, IL23 and MMP3.
Supernatant was removed and replaced with 200 μL of diluted peptide or vehicle (CGM+DMSO diluted as with TI concentration) in appropriate groups. Cells were incubated with peptide test items for 1 hour before stimulation. The following stimulation solutions were generated: 10× Cell Activation Cocktail: Diluted from 500× to 10× working solution in CGM. 22 μL of appropriate stimulants were added to wells 1 hr after TI addition. Finally, 25 μL of Alamar blue reagent (10×) was added to each well 20 hours after stimulant (4 hrs prior to 24 hr serum collection) to determine cell viability. 24 hrs After Stimulant, Alamar blue fluorescence was measured per manufacturer's instructions. […] Expression levels of IL-6, IL-17, and IL-23 as well as MMP3 in 24 hour stimulated culture supernatants was evaluated using a Luminex Multiplex Platform on a MAGPIX instrument.

human TH17 cells = assay: Viability of human TH17 cells (Alamar blue); assay type: cell-based
Method: as §7
Supernatant was removed and replaced with 200 μL of diluted peptide or vehicle (CGM+DMSO diluted as with TI concentration) in appropriate groups. Cells were incubated with peptide test items for 1 hour before stimulation. The following stimulation solutions were generated: 10× Cell Activation Cocktail: Diluted from 500× to 10× working solution in CGM. 22 μL of appropriate stimulants were added to wells 1 hr after TI addition. Finally, 25 μL of Alamar blue reagent (10×) was added to each well 20 hours after stimulant (4 hrs prior to 24 hr serum collection) to determine cell viability. 24 hrs After Stimulant, Alamar blue fluorescence was measured per manufacturer's instructions. Remaining Supernatants were collected for subsequent multiplex protein analyses. Expression levels of IL-6, IL-17, and IL-23 as well as MMP3 in 24 hour stimulated culture supernatants was evaluated using a Luminex Multiplex Platform on a MAGPIX instrument.

IL-17A = target: T2, IL-17A (Homo sapiens, UniProt Q16552); settings: psoriasis, clinical trials; cited from earlier work
T2 construct: host or cells: psoriasis patients (endogenous IL-17A)
T2 sequence (Q16552 24-155): as above

[8] = octanol/ISA water, read-out: logP
[9] = pH 7.4, pH 7.4, octanol/ISA water, read-out: Log D (7.4)

Molecule	solubility [2] [mM]	Papp ([3]; Permeability (Papp ± SE)) [×10⁻⁶ cm/s]	Papp ([3]; Permeability (Papp)) [×10⁻⁶ cm/s]	IC50 [4] [nM]	IP (isoelectric point) [1]	logP [1, 8]	logD [1, 9]	permeability compared to high permeability standard Rhodamine B (in words) [5]	patient population with severity of the disease reduced by at least 75% (PASI75) (IL-17A) [%]	other results
CC[C@H](C)[C@H](NC(C)=O)C(=O)N[C@@H](Cc1c[nH]cn1)C(=O)N[C@H](C(=O)N[C@H](C(=O)N[C@H](C(=O)N1CCC[C@H]1C(=O)N[C@@H](C)C(=O)N[C@@H](CC(=O)O)C(=O)N[C@@H](CC(C)C)C(=O)N[C@@H](Cc1c[nH]c2ccccc12)C(=O)N[C@@H](CC(=O)O)C(=O)N[C@@H](Cc1c[nH]c2ccccc12)C(=O)N[C@H](C(=O)N[C@@H](CC(N)=O)C(=O)N[C@@H](CCCCN)C(N)=O)[C@@H](C)CC)[C@@H](C)CC)[C@@H](C)O)C(C)C [SEQ ID NO: 1, reference compound] (Ac-IHVTIPADLWDWINK-NH2)	> 10	19.3	19.3							logP ([1]; logP): -5.98; logD ([1]; pH 7.4, Log D (7.4)): -3.68; Kd (mouse IL-17A): 3700 nM
CC[C@H](C)[C@H](NC(=O)[C@H](Cc1c[nH]c2ccccc12)NC(=O)[C@H](CC(=O)O)NC(=O)[C@H](Cc1c[nH]c2ccccc12)NC(=O)[C@H](CC(C)C)NC(=O)[C@H](CC(=O)O)NC(=O)[C@H](C)NC(=O)[C@@H]1CCCN1C(=O)[C@@H](NC(=O)[C@@H](NC(=O)[C@@H](NC(=O)[C@H](Cc1c[nH]cn1)NC(=O)[C@@H](NC(C)=O)C(C)C)C(C)C)[C@@H](C)O)[C@@H](C)CC)C(=O)N[C@@H](CC(N)=O)C(=O)N[C@@H](CCCCN)C(N)=O [SEQ ID NO: 2] (Ac-VHVTIPADLWDWINK-NH2)	> 10	28.8	28.9	< 200	5.14	0.99	-0.56	good permeability		Permeability (Papp ± SE) [5]: 28.86; affinity for mouse IL-17A relative to SEQ ID NO: 1 (mouse IL-17A; SPR): 28 fold; Kd (mouse IL-17A; immobilized mIL-17A, 62.5 to 1000 nM peptide, read-out: Kdeq (SPR)): 130 nM; expression of the measured inflammatory cytokines (IL-8, IL-6, TNF-α) [6]: does not change the expression; also recorded: does not show any effect
CC[C@H](C)[C@H](NC(=O)[C@H](Cc1c[nH]c2ccccc12)NC(=O)[C@H](CCC(=O)O)NC(=O)[C@H](Cc1ccc(O)cc1)NC(=O)[C@H](CC(C)C)NC(=O)[C@H](CC(=O)O)NC(=O)[C@H](C)NC(=O)[C@@H]1CCCN1C(=O)[C@@H](NC(=O)[C@@H](NC(=O)[C@@H](NC(=O)[C@H](CCSC)NC(=O)[C@@H](NC(C)=O)C(C)C)C(C)C)[C@@H](C)O)[C@@H](C)CC)C(=O)N[C@@H](CCC(=O)O)C(=O)N[C@@H](CCC(=O)O)C(N)=O [SEQ ID NO: 18] (Ac-VMVTIPADLYEWIEE-NH2)	≥ 0.05			< 400	3.55	1.89	-3.79			secretion of IL-6 [7]: significantly reduce; secretion of IL-17A [7]: significantly reduce; secretion of IL-23 [7]: significantly reduce; secretion of MMP3 [7]: significantly reduce; cell viability (human TH17 cells): did not impair cell viability
CC[C@H](C)[C@H](NC(=O)[C@@H](NC(=O)[C@@H](NC(=O)[C@H](Cc1c[nH]cn1)NC(=O)[C@@H](NC(C)=O)C(C)C)C(C)C)[C@@H](C)O)C(=O)N1CCC[C@H]1C(=O)N[C@@H](CCC(N)=O)C(=O)N[C@@H](CC(=O)O)C(=O)N[C@@H](CC(C)C)C(=O)N[C@@H](Cc1c[nH]c2ccccc12)C(=O)N[C@@H](CCC(=O)O)C(=O)N[C@@H](Cc1c[nH]c2ccccc12)C(=O)N[C@H](C(=O)N[C@@H](CCCNC(=N)N)C(=O)N[C@@H](CCCNC(=N)N)C(N)=O)C(C)C [SEQ ID NO: 115] (Ac-VHVTIPQDLWEWVRR-NH2)	< 0.05		68.8	< 500	8.99	-5.94	-3.91	higher permeability compared to Rhodamine B		
ixekizumab									80	
secukinumab									80	
